For test [1], the system named is obese, hyperinsulinemic hamsters. The conditions noted are these: ezetimibe treatment; cited from earlier work.
Test [2] deals with hypercholesterolemic/diet induced obese C57BL/6 mouse. The test is described as follows: Treatment of hypercholesterolemic/diet induced obese C57BL/6 mice with ezetimibe. The format is in vivo. The conditions noted are these: 5 mg/kg/day. On the procedure: The hypercholesterolemic/diet induced obese C57BL/6 mouse can be used to evaluate the vivo efficacy of a cholesterol absorption inhibitor, ezetimibe, in combination with a selective CB1 receptor antagonist, rimonabant. Feeding mice a “western” diet containing 45 kcal % of fat and 0.15% cholesterol diet for 21 days increased plasma cholesterol to 150 mg/dL and increased hepatic cholesteryl esters 2-fold.
Nonfasted plasma cholesterol levels were determined by a modification of the cholesterol oxidase method, in which the reagents were available in a kit form from Wako Pure Chemicals Industries, Ltd. (Osaka, Japan). Samples of liver (0.2 g) were lipid extracted. Lipid extracts were dried under nitrogen into HPLC sample vials, resuspended in hexane and injected onto a Zorbax Sil (4.6×25 cm) silica column. Chromatography was performed using an isocratic mobile phase containing 98.8% hexane and 1.2% isopropanol at a flow rate of 2 mL/min. Lipids were detected by absorbance at 206 nm and quantitated by computer integration (System Gold, Beckman) of elution profiles. Elution time for cholesteryl ester was 1.45 min. Cholesteryl ester content of liver-derived samples was derived from a standard curve constructed using known amounts of cholesteryl oleate. Cholesteryl oleate was used as the standard since this is the major cholesteryl ester species present in the liver and this specific cholesteryl ester has an extinction coefficient that approximates that of a weighted average for all the cholesteryl esters present in the liver.

The subject of another test is patients. The note with it: cited from earlier work.
In a further test the test system is Diet induced obese mice. The test is described as follows: Treatment of diet induced obese C57BL/6 mice with rimonabant. The conditions noted are these: 1, 3 and 10 mg/kg p.o. once a day for 5 consecutive days; western diet 16 weeks; at all doses. The test is classed as in vivo, mouse. The method, then:
Plasma leptin and insulin were determined using commercially available ELISA kits (Crystal Chem and ALPCO for leptin and insulin, respectively). Whole body adiposity was determined using an NMR based method (EchoMRI, Echo Medical Inc.).

The subject of a further test is diet-induced obese mice. The note with it: mouse, in vivo; cited from earlier work.

The values that follow come from patent publication US20060069080A1, “Combinations of substituted azetidinones and CB1 antagonists” (priority 2004, published 2006).

Structures are written as SMILES.

For the compound `O=C1[C@H](CC[C@H](O)c2ccc(F)cc2)[C@@H](c2ccc(O)cc2)N1c1ccc(F)cc1` [Ezetimibe, ezetimibe], in test [1], the body weights result is given as “does not appear to cause any changes”, the food consumption result is recorded as “does not appear to cause any changes” and the plasma leptin levels result is given as “does not appear to cause any changes”. Besides, the “accumulation of hepatic cholesteryl esters” value in test [2] (western diet 21 days) is “completely inhibited”. The hepatic cholesteryl esters in test [2] (western diet 21 days, control 12.8 mg/g) came out at 4.6 mg/g. Also, the plasma cholesterol levels in test [2] (western diet (45 kcal % fat, 0.15% cholesterol) for 21 days, diet control 150 mg/dL) is 102 mg/dL.
As to `Cc1c(C(=O)NN2CCCCC2)nn(-c2ccc(Cl)cc2Cl)c1-c1ccc(Cl)cc1` [rimonabant], in the test on patients, the “serum high density lipoprotein (HDL) levels” value is on record as “increase” and the triglyceride levels result is on record as “decrease”. In the test with Diet induced obese mice, the adiposity result is on record as “significant dose dependent reduction”, the body weight entry is “significant dose dependent reduction”, the cumulative food intake result was “significant dose dependent reduction” and the plasma insulin levels entry is given as “significant dose dependent reduction”. For the same compound, in the test with Diet induced obese mice, the plasma leptin levels result is listed as “significant dose dependent reduction”. In addition, the plasma cholesterol levels result in the test with diet-induced obese mice is on record as “does not appear to reduce”.
